Laboratory results taken from ChEMBL document CHEMBL1201862, “PubChem BioAssay data set” (2004).
Activity calls are given as the source filed them.

Tests used:
Cytochrome P450 3A4 = Cytochrome P450 3A4 (Homo sapiens, UniProt P08684); settings: Potency;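 also: confirmatory qHTS run detecting inhibitors and substrates of CYP3A4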
[1] = target: T1, RNA-binding protein pos-1 (Caenorhabditis elegans, UniProt G5EF15); assay: disruptors of C. elegans POS-1 RNA interaction – biochemical, fluorescence polarization, dose response (AID 1964);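 also: purified POS-1 fused to maltose binding protein made in E. coli; potency of compounds blocking POS-1 binding to fluorescent RNA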
T1 sequence (G5EF15 whole entry): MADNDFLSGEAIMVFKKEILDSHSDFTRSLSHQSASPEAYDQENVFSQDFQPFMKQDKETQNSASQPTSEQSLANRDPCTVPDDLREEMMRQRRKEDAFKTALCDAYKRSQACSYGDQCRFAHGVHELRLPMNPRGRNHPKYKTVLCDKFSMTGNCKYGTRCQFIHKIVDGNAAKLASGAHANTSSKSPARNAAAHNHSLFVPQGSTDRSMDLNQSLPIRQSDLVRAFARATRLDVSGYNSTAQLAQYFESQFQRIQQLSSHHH

[2] = target: T2, Zinc finger protein mex-5 (Caenorhabditis elegans, UniProt Q9XUB2); assay: potency of MEX-5 RNA-binding blockers – biochemical, C. elegans, fluorescence polarization, dose response (AID 1960)
T2 sequence (Q9XUB2 whole entry): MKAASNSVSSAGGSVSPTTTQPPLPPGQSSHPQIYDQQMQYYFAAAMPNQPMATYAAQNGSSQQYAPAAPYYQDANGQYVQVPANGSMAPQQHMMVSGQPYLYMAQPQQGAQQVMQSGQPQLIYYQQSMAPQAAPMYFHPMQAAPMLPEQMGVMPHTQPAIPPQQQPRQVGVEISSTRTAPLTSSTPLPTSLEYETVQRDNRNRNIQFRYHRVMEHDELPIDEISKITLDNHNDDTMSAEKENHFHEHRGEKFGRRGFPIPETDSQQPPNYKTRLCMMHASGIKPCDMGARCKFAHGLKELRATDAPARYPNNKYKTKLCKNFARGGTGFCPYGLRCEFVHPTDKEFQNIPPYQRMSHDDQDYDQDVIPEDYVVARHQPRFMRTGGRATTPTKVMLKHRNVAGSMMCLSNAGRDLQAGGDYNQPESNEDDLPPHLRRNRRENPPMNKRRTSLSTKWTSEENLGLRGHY

[3] = microbe, parasite or virus in culture; type: functional; settings: Mycobacterium tuberculosis
[4] = system: Streptococcus sp. 'group A'; assay: Streptococcus pyogenes SK(-)GAS viability under kanamycin – luminescence, BacTiterGlo, confirmation, counter-screen for streptokinase expression inhibitor project, dose response (AID 1900); type: functional, organism-based
Streptococcus = assay: GAS UMAA2166 growth inhibition – luminescence, BacTiterGlo, counter-screen for streptokinase expression inhibitor project, dose response (AID 1915); type: functional, organism-based;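 also: potency for reduction of bacterial viability or growth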
[5] = NIH-3T3 fibroblast cytotoxicity, dose response, cytotoxicity control, cell-based, fluorescence, Alamar Blue, secondary assay (AID 2327); type: functional;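 also: NIH-3T3 mouse fibroblasts cultured with fluconazole at 8 µg/mL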
[6] = fluconazole-exposed Candida albicans growth modulators – fluorescence, retest, confirmation (AID 2467); type: functional, cell-based
[7] = non-specific 3'UTR reporter inhibition in Clone20-Shn3RL – cell-based, Renilla luciferase, cherry-picked, counter-screen for Shn3 inhibitor project, dose response (AID 624133); type: functional
[8] = loss of viability in HepG2 cells – cell-based, CellTiter-Glo, cherry-picked, cytotoxicity control for Shn3 inhibitor project, dose response (AID 624134); type: functional
[9] = reduction of Shn3 3'UTR-driven luciferase in osteoblasts – cell-based, Clone20 osteoblasts, firefly luciferase, cherry-picked, dose response (AID 624132); type: functional;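 also: firefly luciferase luminescence from reporter carrying the Shn3 3'UTR in osteoblasts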
Large T antigen = Large T antigen (Simian virus 40, UniProt P03070); type: functional, Betapolyomavirus macacae;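 also: Confirmatory-stage PubChem screen for compounds that inhibit SV40 T antigen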
Chain of Large T antigen (P03070 whole entry): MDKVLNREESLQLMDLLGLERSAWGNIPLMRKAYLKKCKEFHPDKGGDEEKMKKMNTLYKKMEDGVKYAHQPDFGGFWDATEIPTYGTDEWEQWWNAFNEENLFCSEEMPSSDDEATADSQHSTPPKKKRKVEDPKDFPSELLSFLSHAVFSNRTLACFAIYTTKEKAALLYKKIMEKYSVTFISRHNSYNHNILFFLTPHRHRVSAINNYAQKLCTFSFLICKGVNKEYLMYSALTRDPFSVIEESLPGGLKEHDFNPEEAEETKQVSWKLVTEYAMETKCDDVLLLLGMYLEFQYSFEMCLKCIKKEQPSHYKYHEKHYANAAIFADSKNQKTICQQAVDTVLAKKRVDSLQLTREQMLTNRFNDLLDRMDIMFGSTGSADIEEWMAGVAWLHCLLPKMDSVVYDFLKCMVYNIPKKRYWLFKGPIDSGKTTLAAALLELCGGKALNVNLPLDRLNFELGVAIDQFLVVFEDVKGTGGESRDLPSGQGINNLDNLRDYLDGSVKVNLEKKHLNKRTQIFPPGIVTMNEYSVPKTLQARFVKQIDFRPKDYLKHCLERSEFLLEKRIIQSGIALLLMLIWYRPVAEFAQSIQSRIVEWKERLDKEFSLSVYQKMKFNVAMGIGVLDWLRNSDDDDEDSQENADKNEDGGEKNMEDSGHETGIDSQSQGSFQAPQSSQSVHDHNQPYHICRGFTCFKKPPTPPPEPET

[10] = target: T3, Rac GTPase-activating protein 1 (Homo sapiens, UniProt Q9H0H5); assay: blockers of MgcRacGAP-driven Rac1 GTP hydrolysis – biochemical, ADP Hunter fluorescence, primary and confirmatory, confirmation (AID 624330); type: functional
T3 sequence (Q9H0H5 whole entry): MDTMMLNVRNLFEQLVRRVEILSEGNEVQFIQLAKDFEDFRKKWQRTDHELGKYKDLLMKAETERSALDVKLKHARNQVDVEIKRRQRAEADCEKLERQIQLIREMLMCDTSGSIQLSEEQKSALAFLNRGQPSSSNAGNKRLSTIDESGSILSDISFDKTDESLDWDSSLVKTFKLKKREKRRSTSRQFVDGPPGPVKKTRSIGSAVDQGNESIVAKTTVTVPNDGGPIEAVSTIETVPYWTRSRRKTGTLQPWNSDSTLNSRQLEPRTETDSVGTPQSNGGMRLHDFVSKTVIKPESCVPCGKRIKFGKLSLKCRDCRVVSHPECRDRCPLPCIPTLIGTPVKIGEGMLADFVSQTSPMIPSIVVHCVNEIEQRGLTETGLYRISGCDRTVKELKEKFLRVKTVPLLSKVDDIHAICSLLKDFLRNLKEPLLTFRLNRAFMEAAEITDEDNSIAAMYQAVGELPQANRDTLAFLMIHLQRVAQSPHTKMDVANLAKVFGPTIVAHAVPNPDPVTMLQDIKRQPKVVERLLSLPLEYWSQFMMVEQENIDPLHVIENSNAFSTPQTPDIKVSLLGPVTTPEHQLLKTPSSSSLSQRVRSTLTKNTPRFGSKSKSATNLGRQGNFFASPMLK

[11] = target: T4, Microphthalmia-associated transcription factor (Homo sapiens, UniProt O75030); assay: reducers of TRPM1 reporter luminescence, concentration series – cell-based, SK-MEL-5, cherry-picked, set 3, MITF inhibitor project, dose response (AID 493073); type: functional;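 also: SK-MEL-5 melanoma cells with luciferase driven by the MITF target TRPM1 promoter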
T4 sequence (O75030 whole entry): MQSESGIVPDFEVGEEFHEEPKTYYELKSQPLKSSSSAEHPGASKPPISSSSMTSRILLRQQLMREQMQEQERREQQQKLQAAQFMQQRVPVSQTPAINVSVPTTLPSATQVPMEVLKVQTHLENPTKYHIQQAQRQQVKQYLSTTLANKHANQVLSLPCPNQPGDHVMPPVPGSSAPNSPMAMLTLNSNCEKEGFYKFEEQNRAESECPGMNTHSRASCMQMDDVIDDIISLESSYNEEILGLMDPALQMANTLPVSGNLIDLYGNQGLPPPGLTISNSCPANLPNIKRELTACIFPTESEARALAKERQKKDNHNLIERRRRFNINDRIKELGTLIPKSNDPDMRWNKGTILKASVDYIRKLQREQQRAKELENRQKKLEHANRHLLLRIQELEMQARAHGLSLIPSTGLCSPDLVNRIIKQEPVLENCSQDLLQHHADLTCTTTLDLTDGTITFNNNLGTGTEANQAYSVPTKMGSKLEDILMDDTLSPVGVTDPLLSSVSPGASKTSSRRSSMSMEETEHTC

Chain of Cytochrome P450 3A4 (P08684 whole entry, the tested form may be a part): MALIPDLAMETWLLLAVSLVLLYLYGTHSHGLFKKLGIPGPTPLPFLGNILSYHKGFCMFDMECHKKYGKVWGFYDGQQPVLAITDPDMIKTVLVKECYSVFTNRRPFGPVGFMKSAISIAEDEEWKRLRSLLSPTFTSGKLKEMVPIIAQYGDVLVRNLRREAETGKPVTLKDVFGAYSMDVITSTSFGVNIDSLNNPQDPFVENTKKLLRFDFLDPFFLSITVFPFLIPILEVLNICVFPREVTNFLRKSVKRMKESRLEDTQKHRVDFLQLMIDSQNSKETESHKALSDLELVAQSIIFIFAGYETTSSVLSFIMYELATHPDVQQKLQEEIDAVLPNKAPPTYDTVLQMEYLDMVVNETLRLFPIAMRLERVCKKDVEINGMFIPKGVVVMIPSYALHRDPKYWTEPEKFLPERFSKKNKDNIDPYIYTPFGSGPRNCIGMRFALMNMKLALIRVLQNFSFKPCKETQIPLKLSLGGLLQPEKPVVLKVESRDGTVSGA

COc1ccc(-c2coc3cc(OC(C)=O)cc(OC(C)=O)c3c2=O)cc1
AC50 (Cytochrome P450 3A4): 31.6 µM (inconclusive)

CC(=O)c1c(O)c(C)c(O)c2c1OC1=CC(=O)C(C(C)=O)C(=O)[C@@]12C (some centres not stated)
AC50 (Cytochrome P450 3A4): 12.6 µM (inconclusive)

COC(=O)c1ccc(C23CC4(C2)[C@H](CN(Cc2ccc(C(F)(F)F)cc2)[C@@H]4c2ccccc2)C3c2ccccc2)cc1 (some centres not stated)
EC50 [1]: > 300 µM (not active) | EC50 [2]: > 300 µM (not active) | AC50 (Cytochrome P450 3A4): 25.1 µM (inconclusive)

CCCSc1nn2c(=O)c3ccccc3nc2s1
CC50 [3]: > 40 µM (active)

CCCCN(CCCC)c1nc(-c2ccncc2)nc2ccccc12
CC50 [3]: 29.3 µM (active) | EC50 [4]: 5.38 µM (active) | EC50 (Streptococcus): 8.44 µM (active)

CCC(=O)N1c2ccc(S(=O)(=O)CCC(=O)N3CCn4c3nc3ccccc34)cc2CC1C (configuration not stated)
CC50 [3]: > 40 µM (active) | EC50 [5]: 42.9 µM (active) | EC50 [6]: 4.5 µM (active)

CCc1ccc(NCc2ccc(OC)c(Cn3ccnc3)c2)cc1
CC50 [3]: 24.2 µM (active)

c1ccc(CN2CCN(c3ncnc4c3[nH]c3ccccc34)CC2)cc1
AC50 [7]: 5.4 µM (active) | AC50 [8]: 31.4 µM (active) | AC50 [9]: 2.06 µM (active)

C=C1C(=O)OC2CC1C(OC(C)=O)CC(C)=CCCC(C)=CCCC2(C)O (configuration not stated)
AC50 [7]: 4.19 µM (active) | AC50 [8]: 15.1 µM (active) | AC50 [9]: 0.91 µM (active)

Cc1cc(O)nc(N/N=C/c2c[nH]c3ccccc23)n1
IC50 (Large T antigen): 24.6 µM (active)

O=C(COc1cccc2cccnc12)N/N=C/c1ccc(O)cc1
IC50 [10]: 77 µM (active) | IC50 (Large T antigen): 19.5 µM (active)

COc1cc(/C=N/N2C(=O)C3C4C=CC(CC4)C3C2=O)ccc1O (configuration not stated)
IC50 (Large T antigen): 10.1 µM (active)

C=C1C(=O)O[C@@]23[C@H]1CC[C@@H](C)[C@@H]2CC[C@@]1(C)O[C@@H]31 [ARTEANNUIN B]
AC50 [11]: 5.22 µM (active)

COc1ccc2c(c1)OCC(Cc1ccc(OC)c(OC(C)=O)c1)C2=O (configuration not stated) [DEOXYSAPPANONE B 7,3'-DIMETHYL ETHER ACETATE]
AC50 (Cytochrome P450 3A4): 39.8 µM (inconclusive)

Cc1cc(O)c(C=O)c2c1C(=O)Oc1c(COC(=O)/C=C/C(=O)O)c(O)c(C(=O)O)c(C)c1O2 [FUMARPROTOCETRARIC ACID]
AC50 (Cytochrome P450 3A4): 39.8 µM (inconclusive)

COc1cc2ccc(=O)oc2c2ccoc12 [SPHONDIN]
AC50 (Cytochrome P450 3A4): 3.98 µM (inconclusive)
